The values below are quoted from earlier work in patent publication US6346634B1, “Chemical compound containing a superoxide scavenger and an organic nitrate or nitrite moiety” (Teijin Limited, priority 1999, dated 2002).

Structures are written as SMILES.

The target of this data set is XO (Homo sapiens, UniProt P47989). The settings on record: inhibition of superoxide-generating NADH oxidase activity.
Chain of XO (P47989 whole entry): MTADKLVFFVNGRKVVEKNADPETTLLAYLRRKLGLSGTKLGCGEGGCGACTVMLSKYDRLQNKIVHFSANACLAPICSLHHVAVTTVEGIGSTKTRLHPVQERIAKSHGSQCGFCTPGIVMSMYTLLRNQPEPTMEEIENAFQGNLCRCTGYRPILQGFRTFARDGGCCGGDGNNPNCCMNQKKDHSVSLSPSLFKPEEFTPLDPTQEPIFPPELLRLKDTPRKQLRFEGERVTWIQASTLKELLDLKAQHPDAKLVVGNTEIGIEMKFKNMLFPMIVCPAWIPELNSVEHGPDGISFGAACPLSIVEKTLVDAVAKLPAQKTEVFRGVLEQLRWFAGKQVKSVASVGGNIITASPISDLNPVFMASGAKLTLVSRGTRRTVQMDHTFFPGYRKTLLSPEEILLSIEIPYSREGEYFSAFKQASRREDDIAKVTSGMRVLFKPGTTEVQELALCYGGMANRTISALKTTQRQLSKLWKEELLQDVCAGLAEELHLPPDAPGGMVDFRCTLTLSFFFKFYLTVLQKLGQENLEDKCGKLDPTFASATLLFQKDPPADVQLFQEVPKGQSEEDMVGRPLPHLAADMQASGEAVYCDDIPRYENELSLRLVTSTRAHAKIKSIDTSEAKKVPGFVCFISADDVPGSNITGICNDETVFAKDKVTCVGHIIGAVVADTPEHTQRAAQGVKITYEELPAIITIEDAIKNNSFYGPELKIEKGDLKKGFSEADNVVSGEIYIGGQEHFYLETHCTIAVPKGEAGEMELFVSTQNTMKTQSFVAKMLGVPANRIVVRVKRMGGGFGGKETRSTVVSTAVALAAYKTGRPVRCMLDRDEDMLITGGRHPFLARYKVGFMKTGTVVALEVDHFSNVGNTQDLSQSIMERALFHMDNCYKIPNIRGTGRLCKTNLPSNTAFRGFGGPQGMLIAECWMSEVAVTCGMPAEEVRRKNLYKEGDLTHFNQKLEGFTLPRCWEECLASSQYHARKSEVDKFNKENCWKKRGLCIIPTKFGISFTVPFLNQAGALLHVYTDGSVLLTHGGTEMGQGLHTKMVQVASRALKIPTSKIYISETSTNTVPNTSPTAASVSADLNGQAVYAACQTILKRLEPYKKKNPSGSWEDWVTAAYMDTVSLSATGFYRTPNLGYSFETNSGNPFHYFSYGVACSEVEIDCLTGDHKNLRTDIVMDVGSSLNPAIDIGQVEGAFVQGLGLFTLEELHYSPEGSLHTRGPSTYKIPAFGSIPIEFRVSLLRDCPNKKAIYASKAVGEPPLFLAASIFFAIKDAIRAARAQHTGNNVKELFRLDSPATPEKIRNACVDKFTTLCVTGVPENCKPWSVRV
Regarding `Oc1ncnc2[nH]ncc12` [allopurinol], the “NADH-oxidizing activity of XO” value was “not suppressible”. In the case of `COc1cc(-c2cnn3c(=O)nc[n-]c23)ccc1[S+]([O-])c1ccccc1.[Na+]` (centres unmarked) [BOF-4272], the “NADH-oxidizing activity of XO” value is given as “not suppressible”. As to `Nc1c(-c2cccc(C(F)(F)F)c2)nsc1C(=O)O` [Amfiutizole], the “NADH-oxidizing activity of XO” value is listed as “not suppressible”.

As for `O=c1[nH]c(=O)c2c[nH]nc2[nH]1` [oxypurinol], the “NADH-oxidizing activity of XO” value is recorded as “not suppressible”. Regarding `c1ccc2c(c1)[I+]c1ccccc1-2` [diphenyleneiodonium], the “NADH-oxidizing activity of XO” value is reported as “blocked”.
